Data reported in patent US11058699B2, “Method and compositions for inhibition of double stranded DNA viruses” (WISCONSIN ALUMNI RESEARCH FOUNDATION, priority 2008, dated 2021).
Entries after “also recorded” stand apart in the source; their conditions may differ.

How the values were obtained:
[1] = test system: HaCaT cells; assay: CellTiter-Glo Luminescent cell viability assay in HaCaT cells; details: 3 μM, 48 hours
Description: The reporter RL activity (FIG. 1A) and cell viability (FIG. 1B) were measured by Renilla Luciferase Assay System (Promega) and CellTiter-Glo Luminescent cell viability assay (Promega), respectively. Human keratinocyte HaCaT cells were inoculated with HPV16 LCR-driven RL containing pseudovirions hpv16wpA-RL after 4 hours of pre-treatment with 3 μM of each compound, and reporter expression/cell viability were scored 48 hours later. The expression value is shown as viability to untreated cells with hpv16wpA-RL.

[2] = test system: HPV pseudovirions hpvSEAP; assay: hpvSEAP pseudovirion infectivity assay (SEAP) in 293T cells; type: cell-based, HPV16
Description: FIG. 6. Early M phase arrest by CDK1 inhibition interferes with HPV infection. (FIG. 6A) 293T cells were treated with a CDK1 inhibitor, purvalanol A (3, 6, and 12 μM) and infected with hpvSEAP. […] The columns represent the mean, the bars represent the standard deviation. (FIG. 6B) Cell cycle arrest at M phase by purvalanol A (12 μM) is shown. Histograms indicate the cell cycle status of DMSO and purvalanol A-treated cells, respectively.
Cell cycle inhibitors block HPV infection. To identify mechanistic pathways and informative modulators of HPV infection, we tested nearly 5,000 compounds in known bioactive molecule libraries Prestwick (Prestwick Chemicals) and LOPAC (Library of Pharmacologically Active Compounds, Sigma), with HPV pseudovirions containing an SV40 promoter-driven secreted alkaline phosphatase (SEAP) reporter gene (hpvSEAP). […] Total RNA was extracted after 48 hours, and expression levels of HPV16 E1 ^E4 RNA transcripts were measured by qRT-PCR using E7, E2, and E5 sequence specific primers.
High throughput screening.
Infectivity assay. […] Infectivity of wild type HPV16 virions was examined by quantitative reverse transcriptase PCR (qRT-PCR) by amplifying viral mRNA signals from HPV16-treated 293TT cells. 293TT cells were infected with 50-100 vge/cell of packaged virus and incubated for 48 hours at 37° C.

[3] = test system: hpv16wpA-RL; type: cell-based, HPV16; details: 293T cells, 24 hour synchronization with aphidicolin, 4 hour treatment 3 μM, 48 hours
[4] = test system: influenza virus vector expressing RL; type: cell-based
[5] = test system: β-actin expression; assay: Cellular β-actin expression by qRT-PCR in 293T cells; type: cell-based, human; details: 3 μM, 48 hours
[6] = test system: wild type HPV16; assay: Wild type HPV16 infection of 293T cells, early gene expression by qRT-PCR; type: cell-based; details: 4 hours pre-treatment with 3 μM, 48 hours, compared with neutralizing antibody H16.7E
[7] = 293 cells, HPV16 pseudoviruses expressing SEAP or Renilla luciferase, or intact infectious HPV16 (early gene expression)

| SMILES | effect on cell viability [1] | inhibition of HPV infection ([2]; 293T cells, 12 μM, hpvSEAP, 48 hours) | inhibition of HPV infection, dose dependence ([2]; 293T cells, 3, 6 and 12 μM, SEAP after 48 hours) | HPV infection (RL activity) [3] | influenza infection (RL activity) [4] | inhibition of HPV infection [2, 7] | cellular β-actin expression [5] | HPV16 gene expression (wild type HPV16 virion infection) [6] | inhibition of HPV infection ([2]; 293 cells, HPV16 pseudoviruses expressing SEAP or Renilla luciferase, or intact infectious HPV16 (early gene expression), listed as etopside) |
| --- | --- | --- | --- | --- | --- | --- | --- | --- | --- |
| O=c1[nH]cc(F)c(=O)[nH]1 [5-fluorouracil] | did not have any effect | – | – | – | – | – | – | – | – |
| CC(C)[C@H](CO)Nc1nc(Nc2cccc(Cl)c2)c2ncn(C(C)C)c2n1 [Purvalanol A, purvalanol A] | – | about 5 fold | inhibited HPV infection dose-specifically | – | – | – | – | – | – |
| C[C@@]1(CO)[C@H](O)CC[C@@]2(C)[C@H]1CC[C@H]1C[C@@H]3C[C@@]12CC[C@]3(O)CO [aphidicolin] | – | – | – | efficiently blocked | did not significantly affect | significantly and consistently inhibit; also recorded: most significant and consistent inhibition | no effect; also recorded: not affected | blocked HPV16 gene expression even more efficiently than a neutralizing antibody | – |
| COc1cc([C@@H]2c3cc4c(cc3[C@@H](O[C@@H]3O[C@@H]5CO[C@@H](C)O[C@H]5[C@H](O)[C@H]3O)[C@H]3COC(=O)[C@H]23)OCO4)cc(OC)c1O [etoposide] | – | – | – | efficiently blocked | did not significantly affect | most significant and consistent inhibition | no effect; also recorded: not affected | blocked HPV16 gene expression even more efficiently than a neutralizing antibody | significantly and consistently inhibit |
